Where two headings read alike, the source gives them in different places. Marks after values point to notes of the source that are not given here. Bounds are passed on as bounds.

Data set [1] is described as follows: Serum FAEE and blood ethanol over time in men and women after alcohol consumption over 90 minutes (Example 1). It counts as in vivo, human. On the procedure: Seven volunteers (four men and […]) were given measured amounts of 100-proof vodka mixed with fruit juice in a 1:3 ratio which was weight-adjusted to increase blood ethanol levels to approximately 120-147 mg/dL. The beverage was divided in 9 equal aliquots which the subjects drank over a 90 minute period, 1 aliquot every 10 minutes. This alcohol intake represented consumption to the legal limit of intoxication. Once the drinking commenced, blood was collected from a catheter every 15 min for the first 2.5 h. Between 2.5 and 4.0 h, samples were collected every 30 min; and from 4 to 8 h, they were collected every 60 min. A final blood sample was also collected 24 h after the ethanol ingestion commenced. Blood was collected from a peripheral venous catheter into vacuum tubes without anti-coagulant (for serum FAEE) and into tubes with the anti-coagulant sodium citrate (for plasma ethanol). (Soderberg, et al., Clinical Chemistry, 45(12):2183-2190, 1999; Doyle, K. M. et al., JAMA, 276:1152-1156, 1996)
All samples were extracted with acetone/hexane (2/8, v/v) and dried under nitrogen vapors to a volume of approximately 300 μL. […] FAEEs were then quantitated by gas chromatography-mass spectrometry (GC-MS) using a Hewlett-Packard 5890 Series II gas chromatograph equipped with a Supelcowax SP-2330 capillary column coupled to an HP-5971 mass spectrometer.

The nature of data set [2]: Post-mortem liver and adipose FAEE as markers of pre-mortem ethanol intake (Example 9). It counts as in vivo. The settings on record: autopsy tissue. The text has this:
This study was approved by both the Massachusetts Medical Examiner Office Committee and the Massachusetts General Hospital Pathology Quality Assurance Committee. Twenty-four sets of samples were collected at the Massachusetts State Medical Examiner's Office and 7 sets of samples were obtained from the Pathology Department of Massachusetts General Hospital. Medical history, history of ethanol ingestion (obtained from the organ bank, treating physician, health insurance records, and/or relatives), and the blood ethanol level at autopsy were obtained in each case. Only cases with available blood ethanol levels were included in this study. Individuals who had detectable blood ethanol levels at the time of autopsy, with or without a history of ethanol abuse, were grouped as “positive for ethanol.” Individuals categorized in the chronic alcoholic or social drinker groups met all of the following criteria a) no known alcohol intake immediately prior to death; b) undetectable blood ethanol level in blood samples collected at autopsy; and c) no suspicious incident at the time of death. In addition, chronic alcoholics were diagnosed according to the Diagnostic and Statistical Manual-IV.
Samples of liver and adipose tissue were collected at autopsy from randomly selected cases and FAEE were isolated and quantitated from these organs as mass per gram wet weight. […]

Data set [3] can be described thus: Plasma FAEE levels in acute (binge) and chronic drinkers at peak ethanol levels and 24 hours after peak (Example 7). The data set is classed as in vivo, human. The settings on record: for average proportion of total FAEE which is ethyl oleate: peak or near peak ethanol levels; for concentration at 24 h: human, plasma, oral; for Proportion of Ethyl Oleate in Binge Drinkers (Mean +/− SEM) / Proportion of Ethyl Oleate in Binge Drinkers (range) / Proportion of Ethyl Oleate in Chronic Drinkers (Mean +/− SEM) / Proportion of Ethyl Oleate in Chronic Drinkers (range): of total FAEE in plasma; for mean difference between proportion of total FAEE which is ethyl stearate and proportion which is ethyl oleate: 24 hours after alcohol consumption. On the procedure: Thus, as an example, gas chromatography either alone or in combination with mass spectrometry and/or an initial step of solid phase extraction can be used to determine total and/or individual fatty acid ethyl ester concentrations. […] If the sample has been previously harvested and frozen, it is thawed out and a 1 mL aliquot is removed for analysis. […] In order to determine and quantitate FAEE content, an internal standard of 1 nmol of ethyl heptadecanoate (ethyl 17:0) is added to each sample. Samples are extracted with acetone hexane (2:8, by volume) and dried under nitrogen vapors to a volume of approximately 300 μL. FAEEs are isolated by solid phase extraction using Bond Elut-LRC aminopropyl columns. Columns are pre-washed with dichloromethane followed by hexane; the sample is then applied to the column and eluted by successive washes of hexane and dichloromethane. Combined eluates are concentrated, and FAEEs are then quantified by GC-MS using a Hewlett Packard 5890 Series II gas chromatograph equipped with a Supelcowax SP-2330 capillary column coupled to an HP-5971 mass spectrometer. The injector and detector are maintained at 260° C. and 280° C., respectively. The oven program is initially maintained at 130° C. for 2 minutes then ramped to 160° C. at 5° C./min, ramped again at 2° C./min to 180° C., held for 7 min, finally, ramped to 230° C. at 15° C/min and maintained for 2 min. Carrier gas flow rate is maintained at a constant 0.8 mL/min throughout. Single-ion monitoring is performed, quantifying appropriate base ions for individual FAEE species [i.e., ions m/z 67, 88, and 101 for ethyl palmitate (E16:0), ethyl heptadecanoate (E17:0), ethyl stearate (E18:0), ethyl oleate (E18:1), and ethyl linoleate (E18.2); and ions m/z 79 and 91 for ethyl arachidonate (E20:4), ethyl eicosapentaenoate (E20:5), and ethyl docosahexaenoate (E22:6)]. FAEEs are quantitated by interpolation of the slope generated from individually prepared calibration curves comparing areas of varying concentrations of E16:0-E22:6 to fixed concentrations of the internal standard (E17:0). Mass relationships are obtained for each FAEE using its individual calibration curve. Total FAEE mass is determined by the addition of masses of individual FAEEs (E16:0-E22:6).
A subset of human subjects presenting at the Massachusetts General Hospital with apparent alcohol related symptoms were entered into this study. Blood was collected from such subjects immediately at the time of presentation, which was assumed to be at peak or near peak ethanol levels, and again 24 hours after presentation. A medical history taken from each subject was used to categorize the subject as a chronic alcoholic or an acute (i.e., binge) drinker. Blood samples were processed, as described herein, to determine the absolute levels of ethyl palmitate, ethyl oleate and total FAEE in plasma.

The nature of data set [4]: Distribution of plasma FAEE species in chronic alcoholics vs. acutely intoxicated individuals (Example 6). It counts as in vivo, human. The conditions noted are these: for proportion of total FAEE, acute drinkers relative to chronic drinkers: plasma. The source says:
Plasma was obtained from chronic alcoholics (i.e. chronic drinkers) at the time of admission to a detoxification program. Acutely intoxicated control subjects used for comparison in this study were normal, healthy volunteers who also participated in the study concerning gender and alcoholic beverage type (see above).

The mark [5] stands for this setting: binge drinkers, 24 hours after peak ethanol levels.
[6] abbreviates: a day after peak or near peak alcohol levels.

Turning to `CCO` [ethanol], in data set [1] (after the beginning of alcohol intake), the “time at which blood ethanol decreased to initial levels” value is listed as “about 500 minutes”. For the same compound, the “maximum level of blood ethanol” value in data set [1] (both men and women) was “approximately 130 mg/dL”.
As to `CCCCC/C=C\C/C=C\C/C=C\C/C=C\CCCC(=O)OCC` [ethyl arachidonate], in data set [2], the “level in liver and adipose, individuals with detectable blood ethanol at autopsy compared with chronic alcoholics and social drinkers” value is listed as “markedly higher”.
Take `CCCCCCCC/C=C\CCCCCCCC(=O)OCC` [ethyl oleate]: in data set [3] (24 hours after peak), the “Concentration of Ethyl Oleate in Binge Drinkers (Mean +/− SEM)” value was “(14 ± 8) pmol/mL”, the “Concentration of Ethyl Oleate in Chronic Drinkers (Mean +/− SEM)” value is “(2714 ± 1821) pmol/mL”, the “Proportion of Ethyl Oleate in Binge Drinkers (Mean +/− SEM)” value is “(0.09 +/− 0.04)” and the “Proportion of Ethyl Oleate in Binge Drinkers (range)” value is given as 0.01-0.46. Moreover, in data set [3] (24 hours after peak), the “Proportion of Ethyl Oleate in Chronic Drinkers (Mean +/− SEM)” value was “(0.71 +/− 0.02)” and the “Proportion of Ethyl Oleate in Chronic Drinkers (range)” value was 0.58-0.82. Moreover, the “proportion of total FAEE which is ethyl oleate” value in data set [3] (setting [5]) was found to be 10%. Further, the “average proportion of total FAEE which is ethyl oleate” value in data set [3] (binge drinkers) came out at 32%. In addition, the “proportion of total FAEE which is ethyl oleate” value in data set [3] (chronic drinkers, 24 hours after peak ethanol levels) was determined as 71%. For the same compound, the “average proportion of total FAEE which is ethyl oleate” value in data set [3] (chronic drinkers) worked out at 28%. For the same compound, the concentration at 24 h in data set [3] (24 hours after peak ethanol levels, read-out: concentration of ethyl oleate in the majority of binge drinkers (9 out of 13)) is less than 1 nM. For the same compound, in data set [3] (24 hours after peak, read-out: Concentration of Ethyl Oleate in Binge Drinkers (range)), the concentration at 24 h lay in the range of 0 to 80 nM. Also, the concentration at 24 h in data set [3] (24 hours after peak, read-out: Concentration of Ethyl Oleate in Chronic Drinkers (range)) fell in the range of 120 to 28100 nM. In data set [3] (peak or near peak ethanol), the “Proportion of Ethyl Oleate in Binge Drinkers (Mean +/− SEM)” value is given as “(0.28 +/− 0.02)”, the “Proportion of Ethyl Oleate in Binge Drinkers (range)” value was 0.01-0.44, the “Proportion of Ethyl Oleate in Chronic Drinkers (Mean +/− SEM)” value is “(0.32 +/− 0.02)” and the “Proportion of Ethyl Oleate in Chronic Drinkers (range)” value is given as 0.16-0.46. For the same compound, in data set [3] (peak or near peak ethanol), the “Concentration of Ethyl Oleate in Binge Drinkers (Mean +/− SEM)” value was “(557 ± 82) pmol/mL”, the “Concentration of Ethyl Oleate in Binge Drinkers (range)” value was in the range of 184 to 1049 pmol/mL, the “Concentration of Ethyl Oleate in Chronic Drinkers (Mean +/− SEM)” value is given as “(2817 +/− 780) pmol/mL” and the “Concentration of Ethyl Oleate in Chronic Drinkers (range)” value lay within 96 to 16011 pmol/mL. The “percent of total FAEE in plasma” value in data set [4] (acute drinkers) is reported as “about 30%”. For the same compound, in data set [4] (chronic drinkers, at admission to detoxification program), the “percent of total FAEE in plasma” value is given as approximately 75%.
For `CCCCCCCCCCCCCCCC(=O)OCC` [ethyl palmitate], the “Ethyl Palmitate to Ethyl Oleate Ratio in Chronic Drinkers (Mean +/− SEM)” value was “(0.41 +/− 0.03)” in data set [3] (24 hours after peak) and “(1.27 +/− 0.12)” in data set [3] (peak or near peak). In addition, the “Ethyl Palmitate to Ethyl Oleate Ratio in Chronic Drinkers (range)” value in data set [3] (24 hours after peak) is on record as 0.22-0.73; in data set [3] (peak or near peak), 0.53-3.49. Also, the “Ethyl Palmitate to Ethyl Oleate Ratio in Binge Drinkers (Mean +/− SEM)” value in data set [3] (24 hours after peak, mean calculated using a value of 100 where the ratio was ∞) is on record as “(69.8 +/− 13.1)*”; in data set [3] (peak or near peak) it was “(6.28 +/− 5.0)”. In data set [3] (setting [6]), the “P/O ratio of all chronic drinkers” value is listed as “less than 1.0”. Moreover, in data set [3] (setting [6]), the “P/O ratio of most binge drinkers” value is recorded as “∞”. Also, the “mean proportion of total FAEE which is ethyl palmitate” value in data set [3] (setting [5]) turned out to be 80%; in data set [3] (binge drinkers, peak or near peak alcohol levels) it was 49%; in data set [3] (chronic alcoholics, 24 hours after peak ethanol levels), 29%; in data set [3] (chronic alcoholics, peak or near peak alcohol levels), 38%. In addition, in data set [3] (peak or near peak), the “Ethyl Palmitate to Ethyl Oleate Ratio in Binge Drinkers (range)” value is recorded as 0.96-70.65. Also, the “proportion of total FAEE, acute drinkers relative to chronic drinkers” value in data set [4] is given as “almost three times higher”.
Take `CCCCCCCCCCCCCCCCCC(=O)OCC` [ethyl stearate]: the “mean difference between proportion of total FAEE which is ethyl stearate and proportion which is ethyl oleate” value in data set [3] (binge drinkers) is “about 10%”; in data set [3] (chronic alcoholics), “roughly 70%”. The “proportion of total FAEE, acute drinkers relative to chronic drinkers” value in data set [4] was approximately 15 fold.

Values taken from patent publication US20010041365A1, “Methods for monitoring alcohol consumption” (priority 2000, published 2001).
